# Test results: patent US20210259954A1, “CILIA-TARGETING NANOPARTICLES” (Chapman University, priority 2019, published 2021)
# Assays:
# [1] = system: Tie2Cre⋅Pkd2^flox/flox mice; assay: Endothelial-specific Pkd2 mouse model, 8-week treatment (Example 2); type: in vivo
# Method: Mouse models. All mouse experiments were performed by two operators who were blinded to the experimental conditions. All animal procedures were performed according to the University of California Irvine and Chapman University Animal Care and Use Committee Guidelines. One-week-old Tie2Cre⋅Pkd2^WT/WT (with Cre activation; control group), Tie2Cre⋅Pkd2^flox/flox (without Cre activation; control group) or Tie2Cre⋅Pkd2^flox/flox (with Cre activation; experimental group) mice were intraperitoneally injected with 250 μg of tamoxifen in a 50-μL volume daily for five consecutive days. A limited number of IFT88 mice was also used as a cilia-less model in this study. […] On the other hand, fenoldopam-alone (1 μg/kg/min) was perfused for 30 minutes every 72 hours for 8 weeks. […] Five minutes after the CT-Fe2O3-NP injection, a 1.35-T AlNiCo cylindrical magnet (VWR International) was placed at the posterior and anterior regions of the mouse for 10 minutes daily.
# Mouse blood pressure measurements. […] Blood pressure was measured twice daily for the duration of the study after the initial three days of acclimating each mouse to the cuff. All measurements were performed by operators in a double-blind. At the end of the 12-week treatment, the haematology results including the BUN and plasma nitrate/nitrite measurements were examined. BUN assays were conducted using an Arbor Assays calorimetric Detection Kit. Plasma nitrate/nitrite concentrations were quantified using a Cayman nitrate/nitrite assay kit. All steps were performed according to the manufacturers' instructions.
# H&E and Masson's trichrome staining. Sections of the zebrafish (whole body) and major mouse organs, including the hearts, kidneys, livers, spleens and lungs, were collected and subjected to H&E staining for zebrafish cysts and histopathology by fixation in 10% formalin. Then, the tissues were dehydrated in buffered formalin, ethanol, and xylene. Finally, the tissues were embedded in liquid paraffin, sectioned (4 μm), and stained with H&E for histological examinations. The pathology slices were observed and imaged using a KEYENCE-BZ-X710 microscope. Mouse heart sections were stained with Masson's trichrome to detect fibrosis using a Masson's Trichrome Stain Kit (Polysciences).
# [2] = system: Tie2Cre⋅Pkd2^flox/flox mice; assay: Endothelia-specific Pkd2 knockout hypertensive mouse model, 8-week treatment (Example 1); type: in vivo
# Method: One-week-old Tie2Cre⋅Pkd2^WT/WT (with cre activation; control group) or Tie2Cre⋅Pkd2^flox/flox (without cre activation; control group), and Tie2Cre⋅Pkd2^flox/flox (with cre activation; experimental group) mice were injected intra-peritoneally with 5 μg/μL tamoxifen every day for five consecutive days. […] The overall process for the preparation of the final nano-formulation for the animal studies included the following steps. The lyophilized antibody conjugated and drug-loaded CT-DAu-NPs or CT-PLGA-NP powders were first brought to the room temperature from a storage at −50° C. […] The formulations were mixed by vortex for 2 minutes followed by filtration of 0.2 μm. […] The mice were treated every 72 hours with different NPs for 8 weeks. Blood pressure from four-week-old mice was taken with the non-invasive tail-cuff method using the CODA system (Kent Scientific). Blood pressure was measured twice daily for the duration of the study after the initial three days of acclimating each mouse to the cuff. At the end of the 12 weeks of treatment, the hematology parameters, including the blood urea nitrogen (BUN) and plasma nitrate/nitrite measurements, were examined. BUN assays were conducted using a calorimetric kit (Arbor Assays). Plasma nitrate/nitrite concentrations were quantified using a nitrate/nitrite assay kit (Cayman). All steps were followed according to the manufacturer's instructions. […] Then, the tissues were dehydrated using buffered ethanol, and xylene. Finally, the tissues were embedded in wax, sectioned (4 μm, Microtome, HM-3555, Thermo Scientific) and were subsequently stained with standard hematoxylin and eosin (H&E). The pathology slices were observed and imaged using a KEYENCE-BZ-X710 microscope. Mouse heart sections were stained with Masson's Trichrome to detect fibrosis using a Masson's Trichrome Stain Kit (Polysciences, Inc.).
# primary cilia = assay: In vitro cilia length, immunocytochemistry (Example 2); type: cell-based, porcine; details: 16 h of treatment
# Method: Immunocytochemistry and confocal microscopy. For the in vitro cilia length measurements, cells were grown on the Formvar® polymer, as mentioned above. […] Fenoldopam-alone was also used as another control. […] An antibody against acetylated-α-tubulin (1:10,000 dilution, Sigma-Aldrich) and the secondary antibodies were also diluted in 10% FBS to decrease the background florescence; a FITC-conjugated secondary antibody (1:1000; Pierce) was used. Cells were then washed three times for 5 minutes each with cacodylate buffer and sealed with mounting media containing DAPI (Vector Laboratories). […] Images were processed using NIS-Elements High Content AR 4.30.02 (Nikon). Automated image acquisition (ND acquisition) was conducted under the same ×60 magnification (selected area capturing option) field and Z-stack (0.1 μm slices) settings to create a 3D video. All imaging and video acquisition times and the microscope stage were automatically controlled (XY, XZ and YZ) by an automated perfect focusing system (PFS). The in vivo cilia length measurements and NP localizations in the zebrafish and mouse tissues were performed using the same method.
# [3] = system: Tie2Cre⋅IFT88^flox/flox mice; assay: Working heart perfusion system, hearts of treated IFT88 mice; type: in vivo, mouse
compound,measurement,setting,value
"Oc1ccc(C2CNCCc3c2cc(O)c(O)c3Cl)cc1 (centres unmarked) [Fenoldopam, fenoldopam]",acute blood pressure and heart rate,[1]; 60 minutes after infusion,"immediate decrease in blood pressure, followed by reflex tachycardia"
same,"blood pressure (SBP, MAP)","[1]; Pkd2 mice, every 72 hours for 8 weeks",did not result in an overall decrease in systemic blood pressure
same,mortality,"[1]; Pkd2 mice, repeated infusions for 8 weeks",40%
same,duration of blood pressure decrease,[1]; after infusion,approximately one
same,cilia length,[1]; continuous infusion for 5 days,increased the cilia length
same,cilia length in aorta and heart,[2]; 24 or 72 hours after treatment,increased by CTNDDS but not fenoldopam
same,blood urea nitrogen (BUN),[2]; Pkd2 mice,could not be corrected
same,plasma nitrate/nitrite,[2]; Pkd2 mice,could not be corrected
same,acute blood pressure and heart rate,"[2]; Pkd2 mice, 10-minute infusion",significantly decreased blood pressure followed by reflex tachycardia
same,"blood pressure (SBP, MAP)","[2]; hypertensive Pkd2 mice, every 3 days for 8 weeks",no long-term effect
same,cilia length,primary cilia,increased the cilia length
same,"CO, cardiac output",[3]; diltiazem stress,1857 ± 137 µL/min
same,"EDPVR, end-diastolic pressure volume relation",[3]; diltiazem stress,0.13 ± 0.01 mmHg/μL
same,"EF, ejection fraction",[3]; diltiazem stress,51.6 ± 1.7%
same,"ESPVR, end-systolic pressure volume relation",[3]; diltiazem stress,2.1 ± 0.1 mmHg/μL
same,"HR, heart rate",[3]; diltiazem stress,104 ± 20 beat/min
same,"LV EDP, end-diastolic pressure",[3]; diltiazem stress,5.1 ± 0.1 mmHg
same,"LV EDV, end-diastolic volume",[3]; diltiazem stress,40.0 ± 0.1 µL
same,"LV ESP, end-systolic pressure",[3]; diltiazem stress,30.2 ± 0.1 mmHg
same,"LV ESV, end-systolic volume",[3]; diltiazem stress,19.4 ± 0.7 µL
same,"LV Pmax, systolic pressure",[3]; diltiazem stress,40.2 ± 0.1 mmHg
same,"SV, stroke volume",[3]; diltiazem stress,20.6 ± 0.7 µL
same,"SW, stroke work",[3]; diltiazem stress,725 ± 20 mmHg · μL
same,"dP/dtmax, maximum rate of LV pressure rise",[3]; diltiazem stress,3619 ± 111 mmHg/s
same,"dP/dtmin, maximum rate of LV pressure fall",[3]; diltiazem stress,−1372 ± 330 mmHg/s
same,"CO, cardiac output",[3]; epinephrine stress,7590 ± 176 µL/min
same,"EDPVR, end-diastolic pressure volume relation",[3]; epinephrine stress,0.13 ± 0.01 mmHg/μL
same,"EF, ejection fraction",[3]; epinephrine stress,78.2 ± 2.2%
same,"ESPVR, end-systolic pressure volume relation",[3]; epinephrine stress,10.0 ± 1.1 mmHg/μL
same,"HR, heart rate",[3]; epinephrine stress,241 ± 22 beat/min
same,"LV EDP, end-diastolic pressure",[3]; epinephrine stress,5.3 ± 0.2 mmHg
same,"LV EDV, end-diastolic volume",[3]; epinephrine stress,40.2 ± 0.1 µL
same,"LV ESP, end-systolic pressure",[3]; epinephrine stress,64.5 ± 0.2 mmHg
same,"LV ESV, end-systolic volume",[3]; epinephrine stress,8.7 ± 0.9 µL
same,"LV Pmax, systolic pressure",[3]; epinephrine stress,56.0 ± 0.3 mmHg
same,"SV, stroke volume",[3]; epinephrine stress,31.4 ± 0.8 µL
same,"SW, stroke work",[3]; epinephrine stress,2538 ± 16 mmHg · μL
same,"dP/dtmax, maximum rate of LV pressure rise",[3]; epinephrine stress,17206 ± 578 mmHg/s
same,"dP/dtmin, maximum rate of LV pressure fall",[3]; epinephrine stress,-3180 ± 120 mmHg/s
same,"CO, cardiac output",[3]; vehicle,3780 ± 437 µL/min
same,"EDPVR, end-diastolic pressure volume relation",[3]; vehicle,0.13 ± 0.01 mmHg/μL
same,"EF, ejection fraction",[3]; vehicle,65.5 ± 3.5%
same,"ESPVR, end-systolic pressure volume relation",[3]; vehicle,5.4 ± 0.7 mmHg/μL
same,"HR, heart rate",[3]; vehicle,144 ± 32 beat/min
same,"LV EDP, end-diastolic pressure",[3]; vehicle,5.1 ± 0.1 mmHg
same,"LV EDV, end-diastolic volume",[3]; vehicle,40.1 ± 0.1 µL
same,"LV ESP, end-systolic pressure",[3]; vehicle,54.3 ± 1.0 mmHg
same,"LV ESV, end-systolic volume",[3]; vehicle,13.8 ± 1.4 µL
same,"LV Pmax, systolic pressure",[3]; vehicle,72.4 ± 1.3 mmHg
same,"SV, stroke volume",[3]; vehicle,26.3 ± 1.4 µL
same,"SW, stroke work",[3]; vehicle,1767 ± 56 mmHg · μL
same,"dP/dtmax, maximum rate of LV pressure rise",[3]; vehicle,7819 ± 140 mmHg/s
same,"dP/dtmin, maximum rate of LV pressure fall",[3]; vehicle,−1658 ± 190 mmHg/s
